PubChem BioAssay (NCI)
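All cell lines were grown in 96-well plates and treated with compound for 48 hours. At the GI50, growth is halved. TGI denotes the concentration required for complete inhibition of growth.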

Key:
Experiment in all cases: NCI anticancer screen, dose series, 48 h
[1] = system: NCI-H460 lung
[2] = system: OVCAR-5 ovarian
[3] = system: NCI-H522 lung
[4] = system: RXF 393 renal
[5] = system: MOLT-4 leukemia
[6] = system: HOP-92 NSCLC
[7] = system: SNB-19 CNS
[8] = system: CCRF-CEM leukemia
[9] = system: NCI/ADR-RES ovarian
[10] = system: PC-3 prostate

Structure (SMILES) | TGI [1] [µM] | TGI [2] [µM] | TGI [3] [µM] | TGI [4] [µM] | TGI [5] [µM] | TGI [6] [µM] | TGI [7] [µM] | TGI [8] [µM] | TGI [9] [µM] | TGI [10] [µM] | GI50 [9] [µM] | GI50 [10] [µM] | GI50 [1] [µM] | GI50 [2] [µM] | GI50 [3] [µM] | GI50 [4] [µM] | GI50 [5] [µM] | GI50 [6] [µM] | GI50 [8] [µM]
O=[N+]([O-])c1ccc(-c2csc(=[N+]3CCCCC3)s2)cc1 | > 100 | 62.6 | 18.3 | > 100 | > 60.9 | 64.9 | > 100 | > 100 |  |  |  |  |  |  |  |  |  |  | 
COc1ccc(C(=O)/C=C/SC(=NC#N)SC)cc1 | > 100 | 47.1 | 37.1 | 35.1 | 58 | > 100 | 35.2 |  | 42.3 | > 100 |  |  |  |  |  |  |  |  | 
CCCCNC(=O)Cn1c2ccc(Br)cc2c2nc3ccccc3nc21 |  | > 100 |  | > 100 | > 100 | > 100 | > 100 | > 100 | > 100 | > 100 |  |  |  |  |  |  |  |  | 
C=CN(C=C)C(=O)Cn1cc(-c2ccccc2)nn1 | > 100 | > 100 | > 100 |  | > 100 | > 100 | > 100 | > 100 | > 100 | > 100 |  |  |  |  |  |  |  |  | 
COc1cc2c(c(OC)c1)[C@H](C)N(Cc1ccccc1)C(C)C2 (stereo partly drawn) | > 100 |  | > 100 |  | > 100 |  | > 100 | > 100 |  | > 100 |  |  |  |  |  |  |  |  | 
Nc1c(N2CCOCC2)c(=O)nc2[nH]/c(=C\c3ccccc3O)c(=O)n12 | > 100 | > 100 | > 100 | > 100 | > 100 | > 100 | > 100 | > 100 | > 100 |  |  |  |  |  |  |  |  |  | 
CCN(CC)CCCCNc1c2ccc(Cl)cc2nc2ccc(OC)cc12 |  | 3.33 | 2.66 | 1.78 | 2.79 | 1.87 |  | 5.3 | 3.95 | 2.74 | 0.645 | 0.482 | 0.287 | 0.465 | 0.397 | 0.381 | 0.306 | 0.271 | 0.524
CN1c2ccccc2C2=C(c3ccccc3)CC[C@@H](C(=O)N3C4CC5CC[C@@]4(CS3(=O)=O)C5(C)C)[C@@H]21 (stereo partly drawn) | > 100 | > 100 | > 100 |  | > 100 | > 100 | > 100 | > 100 | > 100 | > 100 |  |  |  |  |  |  |  |  | 
CO[P@@]1(=O)O[C@@H](c2ccccc2)[C@H](O)[C@]1(O)c1ccccc1 | > 100 |  | > 100 | > 100 | > 100 | > 100 | > 100 | > 100 | > 100 | > 100 |  |  |  |  |  |  |  |  | 
CCOC(=O)N1CCN(c2c(N)nc(C)[nH]c2=O)CC1 | > 100 | > 100 | > 100 |  | > 100 | > 100 | > 100 | > 100 | > 100 | > 100 |  |  |  |  |  |  |  |  | 
CNC(=S)N1CCN(C(C)=O)C1=S | > 100 | > 100 | > 100 |  | > 100 | > 100 |  | > 100 | > 100 |  |  |  |  |  |  |  |  |  | 
CC[C@H](NC(=O)OC(C)(C)C)C(=O)NCP(=O)(OCc1ccc([N+](=O)[O-])cc1)OCc1ccc([N+](=O)[O-])cc1 | > 100 | > 100 | > 100 |  | > 100 | > 100 | > 100 | > 100 | > 100 | > 100 |  |  |  |  |  |  |  |  | 
CC[C@]12C=CCN3CCC4(c5cc([C@@]6(C(=O)OC)CC7CN(CCc8c6[nH]c6ccccc86)CC6CCCCC67)c(OC)cc5N(C)C4[C@](O)(C(=O)OC)C1OC(C)=O)[C@@H]32 (stereo partly drawn) | 0.225 | 0.0926 | < 0.0165 | 16.9 |  | 1.5 | 15.4 | > 20.6 | 0.512 | 0.393 |  |  |  |  |  |  |  |  | 
O=c1c2ccc(Cl)cc2oc2c(CNc3ccc(S(=O)(=O)Nc4ncccn4)cc3)cccc12 |  | > 100 | > 100 |  | > 100 | > 100 | > 100 | > 100 | > 100 | > 100 |  |  |  |  |  |  |  |  | 
CN(C)CCNCCCNc1c2ccccc2nc2cccc([N+](=O)[O-])c12 | 0.108 | 0.0543 | < 0.0133 |  | < 0.0192 | 0.0346 | 0.177 | < 0.0207 |  | 0.0609 |  |  |  |  |  |  |  |  | 
CN(C)/N=N/c1nc2c(c(=O)n(C)c(=O)n2C)n1CC1CO1 (stereo not drawn) | 21.7 | > 100 | 29.7 | 15.8 | > 100 |  | 78.2 | > 100 | 41.1 | 56.4 |  |  |  |  |  |  |  |  | 
O=C([C@H](O)[C@@H](O)c1cccc(Cl)c1)C12CC3CC(CC(C3)C1)C2 |  | 8.79 | 5.04 | 3.98 | > 100 |  | 4.07 | > 100 | 5.52 | 4.05 |  |  |  |  |  |  |  |  | 
CC(C)=C/C(CC(O)(C(F)(F)F)C(F)(F)F)=N\O | > 100 | > 100 |  | > 100 | > 100 | > 100 | > 100 | > 100 | > 100 |  |  |  |  |  |  |  |  |  | 
C[As+](C)(c1ccc(Br)c([N+](=O)[O-])c1)c1ccc(Br)c([N+](=O)[O-])c1.O=[N+]([O-])O | > 100 | > 100 | > 100 | > 100 | > 100 | > 100 | > 100 |  | > 100 | > 100 |  |  |  |  |  |  |  |  | 
CCn1ncc2c(=O)n3ncn(-c4ccc(Br)cc4)c3nc21 |  | > 100 | > 100 | > 100 | > 100 |  | > 100 | > 100 | > 100 | > 100 |  |  |  |  |  |  |  |  | 
C=C(C)[C@H]1CC23C(=O)[C@@](C)(C[C@H]2C1(C)C)C(=O)C(C(=O)C(C)C)=C3O | 45.3 | 40.8 | 36.8 | 29 | 19 |  | 69.7 | 24.9 | 27.8 | 33 |  |  |  |  |  |  |  |  | 
Cc1cc(-c2cc(C(C)(C)C)c(O)c(C(C)(C)C)c2)c(C)cc1-c1cc(C(C)(C)C)c(O)c(C(C)(C)C)c1 |  | > 100 | > 100 |  | > 100 | 38.2 | > 100 | > 100 | > 100 | > 100 |  |  |  |  |  |  |  |  | 
